# Results from patent publication US20140249084A1, “PTH-CONTAINING THERAPEUTIC/PROPHYLACTIC AGENT FOR OSTEOPOROSIS, CHARACTERIZED IN THAT PTH IS ADMINISTERED ONCE A WEEK IN A UNIT DOSE OF 100 TO 200 UNITS” (ASAHI KASEI PHARMA CORPORATION, priority 2009, published 2014).
# Tested on: high-risk patients diagnosed with primary osteoporosis
# Assay: Femur (neck, proximal) bone density by DXA, Working Example 2
# Assay type: in vivo, human
# Conditions: 200 units once a week; for Change in bone density (%): patients taking glucocorticoid
# Experimental: For the bone density of the femur, only the left side of the proximal part of the femur, rotated 20°, was measured at the start and every 24 weeks thereafter using dual-energy x-ray absorptiometry (DXA).
substance,measurement,setting,value
teriparatide acetate,Percentage change in bone density (%),"Neck of femur, 24 W, history of Alfacalcidol",1.64%
same,Percentage change in bone density (%),"Neck of femur, 24 W, history of Calcitriol",−0.60%
same,Percentage change in bone density (%),"Neck of femur, 24 W, history of Calcium L-aspartate",1.44%
same,Percentage change in bone density (%),"Neck of femur, 24 W, history of Calcium lactate",0.30%
same,Percentage change in bone density (%),"Neck of femur, 24 W, history of Elcatonin",1.62%
same,Percentage change in bone density (%),"Neck of femur, 24 W, history of Menatetrenone",0.72%
same,Percentage change in bone density (%),"Neck of femur, 24 W, history of Raloxifene hydrochloride",0.21%
same,Change in bone density (%),"Neck of femur, 24 W",2.53%
same,Percentage change in bone density (%),"Neck of femur, 48 W, history of Alfacalcidol",0.85%
same,Percentage change in bone density (%),"Neck of femur, 48 W, history of Calcitriol",−4.03%
same,Percentage change in bone density (%),"Neck of femur, 48 W, history of Calcium L-aspartate",1.88%
same,Percentage change in bone density (%),"Neck of femur, 48 W, history of Calcium lactate",−4.35%
same,Percentage change in bone density (%),"Neck of femur, 48 W, history of Elcatonin",0.72%
same,Percentage change in bone density (%),"Neck of femur, 48 W, history of Menatetrenone",−3.18%
same,Percentage change in bone density (%),"Neck of femur, 48 W, history of Raloxifene hydrochloride",1.03%
same,Change in bone density (%),"Neck of femur, 48 W",2.79%
same,Percentage change in bone density (%),"Neck of femur, 72 W, history of Alfacalcidol",2.19%
same,Percentage change in bone density (%),"Neck of femur, 72 W, history of Calcitriol",−3.53%
same,Percentage change in bone density (%),"Neck of femur, 72 W, history of Calcium L-aspartate",4.17%
same,Percentage change in bone density (%),"Neck of femur, 72 W, history of Calcium lactate",−2.53%
same,Percentage change in bone density (%),"Neck of femur, 72 W, history of Elcatonin",3.15%
same,Percentage change in bone density (%),"Neck of femur, 72 W, history of Menatetrenone",−0.78%
same,Percentage change in bone density (%),"Neck of femur, 72 W, history of Raloxifene hydrochloride",−0.51%
same,Change in bone density (%),"Neck of femur, 72 W",2.44%
same,Percentage change in bone density (%),"Proximal femur, 24 W, history of Alfacalcidol",2.77%
same,Percentage change in bone density (%),"Proximal femur, 24 W, history of Calcitriol",−1.40%
same,Percentage change in bone density (%),"Proximal femur, 24 W, history of Calcium L-aspartate",1.76%
same,Percentage change in bone density (%),"Proximal femur, 24 W, history of Calcium lactate",1.78%
same,Percentage change in bone density (%),"Proximal femur, 24 W, history of Elcatonin",3.86%
same,Percentage change in bone density (%),"Proximal femur, 24 W, history of Menatetrenone",0.60%
same,Percentage change in bone density (%),"Proximal femur, 24 W, history of Raloxifene hydrochloride",2.44%
same,Change in bone density (%),"Proximal femur, 24 W",2.46%
same,Percentage change in bone density (%),"Proximal femur, 48 W, history of Alfacalcidol",2.31%
same,Percentage change in bone density (%),"Proximal femur, 48 W, history of Calcitriol",−1.05%
same,Percentage change in bone density (%),"Proximal femur, 48 W, history of Calcium L-aspartate",2.28%
same,Percentage change in bone density (%),"Proximal femur, 48 W, history of Calcium lactate",−1.68%
same,Percentage change in bone density (%),"Proximal femur, 48 W, history of Elcatonin",3.44%
same,Percentage change in bone density (%),"Proximal femur, 48 W, history of Menatetrenone",−0.56%
same,Percentage change in bone density (%),"Proximal femur, 48 W, history of Raloxifene hydrochloride",2.26%
same,Change in bone density (%),"Proximal femur, 48 W",3.39%
same,Percentage change in bone density (%),"Proximal femur, 72 W, history of Alfacalcidol",2.31%
same,Percentage change in bone density (%),"Proximal femur, 72 W, history of Calcitriol",−0.04%
same,Percentage change in bone density (%),"Proximal femur, 72 W, history of Calcium L-aspartate",3.69%
same,Percentage change in bone density (%),"Proximal femur, 72 W, history of Calcium lactate",−3.20%
same,Percentage change in bone density (%),"Proximal femur, 72 W, history of Elcatonin",4.41%
same,Percentage change in bone density (%),"Proximal femur, 72 W, history of Menatetrenone",−1.40%
same,Percentage change in bone density (%),"Proximal femur, 72 W, history of Raloxifene hydrochloride",3.03%
same,Change in bone density (%),"Proximal femur, 72 W",3.06%
